How the values were obtained:
mice = assay: Mouse skin transplantation model; assay type: in vivo; settings: 50 mg/kg single intraperitoneal injection at grafting
Experimental: In this model, donor and recipient mice were immunologically mismatched (ClassI/Class II MHC mismatched). A piece of skin (˜1 cm^2) from the tail of a donor mouse was transplanted onto the back of a recipient mouse. The graft was bandaged and observed daily for rejection, as indicated by loss of vascularization and necrosis. Recipient mice received vehicle (Control) or 50 mg/kg C40 as a single intraperitoneal injection at the time of grafting.

Rats = assay: Rat model for stroke, Middle Cerebral Artery occlusion; assay type: in vivo; settings: single intravenous injection 3 hr after MCA occlusion
Experimental: (§1) Rats were subjected to a Middle Cerebral Artery (MCA) Occlusion model involving permanent occlusion of the parietal branch of the left middle cerebral artery and temporary (60 min) occlusion of the common carotid arteries. As indicated, rats received a single intravenous injection of vehicle (Control), or C40 at 3 hr after the MCA was occluded. Twenty-one hr after MCA occlusion, brains were removed, sectioned, and stained with the viability dye TTC (2,3,5-triphenyltetrazolium chloride). The stained sections were photographed and the volumes of infarcted (unstained) and viable (red stained) brain tissue quantitated by image analysis.
as §1, with “occlusion” for “Occlusion”

[1] = Catalase activity, decomposition of hydrogen peroxide monitored at 240 nm (Example 1); assay type: biochemical; settings: Example 1, H2O2 decomposition at 240 nm
Experimental: Catalase activity was measured using a spectrophotometric method in which the decomposition of hydrogen peroxide is monitored at 240 nm according to the method of Aebi et al. (1984) Methods Enzymol. 105: 121, incorporated herein by reference. One unit of catalase activity is defined as the amount of enzyme (or salen-metal complex) required to decompose 1 μmole of hydrogen peroxide in one minute.

[2] = system: isolated iron-overloaded rat hearts; assay: Isolated iron-overloaded rat hearts submitted to ischemia and reperfusion (function and electron microscopy)
Experimental: Rats received an intramuscular injection of 0.25 ml of an iron-dextran solution (100 g iron hydroxide, 99 g dextran, water up to 1 l) every third day during a 5-week period to achieve a significant iron overload in cardiac tissue. At the end of this treatment, rats were anesthetized with sodium pentobarbital (40 mg/kg) and heparin (1,000 IU/kg) was administered via a femoral vein. Hearts were then removed and rapidly perfused through the aorta according to the technique described by Langendorff [Langendorff, O., Pflügers Arch. 61: 291, 1895] at a constant flow rate of 11 ml/minute. The perfusion fluid was a modified Krebs-Henseleit buffer containing (in mmol/l): NaCl 118, KCl 5.9, NaHCO3 25, MgCl2 1.2, NaH2PO4 0.6, CaCl2 2.4, Glucose […]. pH was maintained at 7.4±0.05 when the perfusion medium was saturated with O2—CO2 (95%-5%) at 37° C. The perfusion apparatus was fully thermostated such that the temperature of the perfusion medium was 37.0±0.5° C. when it reached the aorta. An ultra-thin balloon was inserted in the left ventricle immediately after the initiation of aortic perfusion and was inflated so as to obtain an end-diastolic pressure of 5 mm Hg. A 15 minute stabilization period was initiated immediately following balloon placement. At the end of this period, systolic and diastolic ventricular pressures and heart beat rate (HR) were recorded through a pressure transducer linked to the ventricular balloon. Left Ventricular Developed Pressure (LVDP) was calculated by the difference between systolic and diastolic pressure and the product HR×LVDP was taken as an index of oxygen consumption. Hearts were then subjected to a 15 minute total global normothermic ischemia, followed by 15 minutes of reperfusion with the perfusion medium used initially. During this 15 minute reperfusion, heart rate, and diastolic and systolic pressures were monitored. Early ventricular fibrillations were analyzed 1 min. after the start of the reperfusion.
Three experimental groups were studied.
After the 15 minute reperfusion, 3 hearts in each group were prepared for electron microscopy by perfusion with 2.5% glutaraldehyde. Ultra-thin slices (500-600 Å thickness) were examined.
Mitochondria were classified into Type A (normal), Type B (swollen, unbroken), and Type C (ruptured membranes). Sarcomeres were classified into Type A (normal) and Type B (contacted and/or necrosis). The results are expressed as percentages.

pigs = assay: Acute lung injury in endotoxemic pigs; assay type: in vivo, pig
Experimental: All pigs were pre-treated at T=−18 h with Escherichia coli 0111:B4 LPS (20 μg/kg). Pigs in the RL group (n=4) received no further treatment. […] Lung wet-to-dry weight ratio was determined post-mortem. Lung lipid peroxidation was estimated fluorometrically by measuring thiobarbituric acid reactive products in the lipid fraction of lung parenchymal tissue harvested at T=300 min.

[3] = 1 minute after reperfusion, DMTU 10 mM, C7 50 μM
[4] = 15 minutes after reperfusion, DMTU 10 mM, C7 50 μM
[5] = Before ischemia, DMTU 10 mM, C7 50 μM
[6] = electron microscopy after 15 minute reperfusion
[7] = T = 300 min, C7 10 mg/kg bolus at T=60 min then 10 mg/kg-h after LPS

COc1cccc2c1[O][Mn]([Cl])[O]c1c(cccc1OC)C=NCCN=C2 [Compound C40]
graft rejection (mice): delays rejection | protection, infarct volume (Rats): protective

[Cl][Mn]1[O]c2ccccc2C=NCCN=Cc2ccccc2[O]1 [Compound C7]
Catalase Activity [1]: 200 units/mM | DP [2, 3]: 5.8 ± 0.5#± mm Hg | HR [2, 3]: 130 ± 13 beats/min | HR × LVDP [2, 3]: 9.9 ± 0.8#± ×10.3 | SP [2, 3]: 72 ± 8 mm Hg | VF, number of hearts exhibiting episodes of ventricular fibrillation [2, 3]: 2/8 | DP [2, 4]: 8.3 ± 0.6 mm Hg | HR [2, 4]: 241 ± 15 beats/min | SP [2, 4]: 92 ± 15 mm Hg | DP [2, 5]: 5.4 ± 0.3 mm Hg | HR [2, 5]: 278 ± 7 beats/min | HR × LVDP [2, 5]: 23.5 ± 0.9 ×10.3 | SP [2, 5]: 90 ± 2 mm Hg | protection of hearts from ischemia/reoxygenation damage ([2]; C7 50 μM): effectively protected hearts | Mitochondria Type A (normal) [2, 6]: 31.0#± % | Mitochondria Type C (ruptured membranes) [2, 6]: 53.8#± % | Sarcomeres Type A (normal) [2, 6]: 60.6#± % | Sarcomeres Type B (contacted and/or necrosis) [2, 6]: 39.4#± % | % Cdyn, dynamic pulmonary compliance (pigs; [7]): 78 ± 4% | MDA, lung malondialdehyde level (pigs; [7]): 180 ± 27 pmols/mg dry weight | PaO2, arterial oxygenation (pigs; [7]): 148 ± 22 mm Hg | Ppa, mean pulmonary arterial pressure (pigs; [7]): 25 ± 3 mm Hg | W/D, lung wet-to-dry weight ratio (pigs; [7]): 6.4 ± 0.9 | protection against effects of endotoxin (pigs; administered 60 min after onset of endotoxemia): protects against many of the deleterious effects of endotoxin
